In article PMC11542720, “Modelling of chromatographic and electrophoretic behaviour of imidazoline and alpha adrenergic receptors ligands under different acid-base conditions” (ADMET & DMPK, 2024):
Values joined by “and” are separate entries in the source; they are usually repeats but may differ in a detail not shown here. Identical values can stand only once. Counter-ions that a name gives are not always drawn.

Tests used:
[1] = RP-HPLC retention on XTerra RP18, methanol/buffer; extrapolated retention factor log kw and slope S; format: physicochemical; details: for log kw: intercept, extrapolated to 100 % buffer, methanol/buffer, 25 °C; for S (slope): slope of log k vs methanol volume fraction
Procedure: All measurements were performed at 25°C with a constant flow rate of 0.8 mL min^-1 and UV detection in the range of 200-280 nm. The injection volume was 20 μL. […] The retention factor k was calculated for each mobile phase composition according to Equation (1):
where tr is the retention time of the tested compound and t0 is the dead volume measured with KNO3 as a non-retentive marker. The values corresponding to 100 % of the buffered eluent (log kw) were determined by extrapolation according to Equation (2):
where log kw is the intercept, S is the slope of the regression line, and φ is the volume fraction of the organic modifier in the mobile phase.
The retention behaviour in HPLC system was monitored by calculating extrapolated retention factors log kw corresponding to pure buffer as mobile phase.

[2] = Capillary electrophoresis, effective electrophoretic mobility (acetone as EOF marker); format: physicochemical; details: for µeff4.4 / μeff4.4 (effective electrophoretic mobility): pH 4.4; for µeff4.4 / µeff7.4 / µeff9.1: I = 25 mmol/L, 11 kV, 25 °C, three replicates; for µeff7.4 / μeff7.4 (effective electrophoretic mobility, text): pH 7.4; for µeff9.1 / μeff9.1 (effective electrophoretic mobility): pH 9.1
Procedure: All experiments were performed using the SpectraPhoresis 500-capillary electrophoresis system (Spectra Physics Analytical, USA) with UV detector. Data were recorded and analyzed using ChromQuest software version 4.0 (Thermo Finnigan, USA).
The separations were performed with an uncoated fused capillary (total length 31.5 cm, 50 μm id, effective length 24 cm, Polymicro Technologies, USA) applying a voltage of 11 kV and at 25 °C. The samples were injected hydrodynamically and detection was performed in the 200-280 nm range. The new capillary was rinsed stepwise with 0.1 M NaOH (15 min), water (10 min) and a running buffer (10 min). Finally, a 10 min high voltage was applied through the background electrolyte-filled capillary to equalize the inner surface, stabilize the electroosmotic flow and ensure good reproducibility of injections from run to run. […] Between runs, the capillary was rinsed with the background electrolyte for 1 minute.
where Lt is the total length of the capillary (cm), Leff is the effective length of the capillary (cm), U is the applied voltage (V), tm is the migration time of the analyte (s) and teof is the migration time of the electroneutral EOF marker acetone (s). The calculated μeff values (μeff4.4, μeff7.4 and μeff9.1) were used as dependent variables in QSMR analysis.

[3] = potentiometric; ref 2 (Supplement reference list); cited from earlier work

Row | SMILES | log kw ([1]; pH 4.4) | S (slope) ([1]; pH 4.4) | log kw ([1]; pH 7.4) | S (slope) ([1]; pH 7.4) | log kw ([1]; pH 9.1) | S (slope) ([1]; pH 9.1) | µeff4.4 [2] | µeff7.4 [2] | µeff9.1 [2] | μeff9.1 (effective electrophoretic mobility) [2] | pKa experimental [3] | log kw ([1]; pH 4.4, listed as carvedilol) | μeff4.4 (effective electrophoretic mobility) [2] | μeff7.4 (effective electrophoretic mobility, text) [2] | μeff7.4 (effective electrophoretic mobility, text) ([2]; listed as clopamide)
1 | N=C(N)NC(=O)c1nc(Cl)c(N)nc1N [Amiloride, Amiloride hydrochloride] | 1.11 ± 0.04 | -3.31 ± 0.09 | 1.05 ± 0.04 | -3.23 ± 0.12 | 0.98 ± 0.04 | -2.74 ± 0.11 | 25.939 ± 0.080 10^-5 cm^2 V^-1 s^-1 | 21.786 ± 0.082 10^-5 cm^2 V^-1 s^-1 | 6.416 ± 0.022 10^-5 cm^2 V^-1 s^-1 |  |  |  |  |  | 
2 | Brc1c(NC2=NCCN2)ccc2nccnc12 [Brimonidine, brimonidine hydrochloride] | 0.99 ± 0.03 | -4.78 ± 0.21 | 1.08 ± 0.03 | -3.20 ± 0.12 | 1.26 ± 0.07 | -3.23 ± 0.19 | 23.357 ± 0.043 10^-5 cm^2 V^-1 s^-1 | 13.247 ± 0.200 10^-5 cm^2 V^-1 s^-1 | 0.000 ± 0.000 10^-5 cm^2 V^-1 s^-1 | zero | 7.50 |  |  |  | 
3 | COc1ccccc1OCCNCC(O)COc1cccc2[nH]c3ccccc3c12 (stereo not shown) [Carvedilol, carvedilol] | 3.75 ± 0.04 | -5.84 ± 0.07 | 4.15 ± 0.08 | -5.44 ± 0.13 | 4.21 ± 0.10 | -5.56 ± 0.18 | 18.061 ± 0.029 10^-5 cm^2 V^-1 s^-1 | 13.057 ± 0.052 10^-5 cm^2 V^-1 s^-1 | 1.693 ± 0.071 10^-5 cm^2 V^-1 s^-1 |  |  | 3.75 |  |  | 
4 | Clc1cccc(Cl)c1N=C1NCCN1 [Clonidine, Clonidine hydrochloride] | 0.82 ± 0.02 | -2.74 ± 0.05 | 0.98 ± 0.01 | -1.82 ± 0.02 | 1.47 ± 0.01 | -2.71 ± 0.03 | 25.952 ± 0.084 10^-5 cm^2 V^-1 s^-1 | 19.607 ± 0.132 10^-5 cm^2 V^-1 s^-1 | 2.575 ± 0.060 10^-5 cm^2 V^-1 s^-1 |  |  |  |  |  | 
5 | C[C@@H]1CCC[C@H](C)N1NC(=O)c1ccc(Cl)c(S(N)(=O)=O)c1 [Clopamide, clopamide] | 2.00 ± 0.02 | -3.61 ± 0.04 | 1.99 ± 0.03 | -3.59 ± 0.08 | 1.87 ± 0.01 | -3.34 ± 0.02 | 0.000 ± 0.000 10^-5 cm^2 V^-1 s^-1 | 0.000 ± 0.000 10^-5 cm^2 V^-1 s^-1 | -9.640 ± 0.053 10^-5 cm^2 V^-1 s^-1 | negative values of effective mobility |  |  | 0 10^-5 cm^2 / V s and 0.000 ± 0.000 10^-5 cm^2 / V s | zero | 0 10^-5 cm^2 / V s
6 | CN[C@@H](C)[C@H](O)c1ccccc1 [Ephedrine, ephedrine hydrochloride] | 0.56 ± 0.02 | -2.41 ± 0.08 | 0.57± 0.02 | -2.49 ± 0.09 | 1.01 ± 0.02 | -2.52 ± 0.05 | 25.942 ± 0.032 10^-5 cm^2 V^-1 s^-1 | 23.199 ± 0.103 10^-5 cm^2 V^-1 s^-1 | 18.047 ± 0.070 10^-5 cm^2 V^-1 s^-1 |  |  |  |  |  | 
7 | N=C(N)NC(=O)Cc1c(Cl)cccc1Cl [Guanfacine, guanfacine hydrochloride] | 1.73 ± 0.01 | -3.47 ± 0.03 | 1.92 ± 0.12 | -3.21 ± 0.03 | 2.00 ± 0.00 | -3.35 ± 0.01 | 24.242± 0.002 10^-5 cm^2 V^-1 s^-1 | 5.083 ± 0.025 10^-5 cm^2 V^-1 s^-1 | 0.000 ± 0.000 10^-5 cm^2 V^-1 s^-1 | zero |  |  |  | 5.083 ± 0.025 10^-5 cm^2 / V s | 
8 | CC1Cc2ccccc2N1NC(=O)c1ccc(Cl)c(S(N)(=O)=O)c1 (stereo not shown) [Indapamide, indapamide] | 2.69 ± 0.02 | -4.16 ± 0.06 | 2.55 ± 0.02 | -4.19 ± 0.04 | 2.35 ± 0.03 | -3.78 ± 0.06 | 0.000 ± 0.000 10^-5 cm^2 V^-1 s^-1 | 0.000 ± 0.000 10^-5 cm^2 V^-1 s^-1 | -10.382 ± 0.053 10^-5 cm^2 V^-1 s^-1 | negative values of effective mobility |  |  | 0 10^-5 cm^2 / V s and 0.000 ± 0.000 10^-5 cm^2 / V s |  | 
9 | Cc1cc2c(s1)Nc1ccccc1N=C2N1CCN(C)CC1 [Olanzapine, olanzapine] | 1.64 ± 0.04 | -3.37 ± 0.11 | 3.23 ± 0.07 | -4.37 ± 0.12 | 3.28 ± 0.08 | -4.46 ± 0.14 | 33.632 ± 0.036 10^-5 cm^2 V^-1 s^-1 | 10.679 ± 0.039 10^-5 cm^2 V^-1 s^-1 | 1.241 ± 0.029 10^-5 cm^2 V^-1 s^-1 |  |  |  | 33.632 ± 0.036 10^-5 cm^2 / V s |  | 
10 | CN[C@@H](C)[C@@H](O)c1ccccc1 [Pseudoephedrine, pseudoephedrine hydrochloride] | 0.60 ± 0.03 | -2.60 ± 0.10 | 0.61 ± 0.02 | -2.67 ± 0.12 | 1.10 ± 0.02 | -2.72 ± 0.07 | 26.633 ± 0.043 10^-5 cm^2 V^-1 s^-1 | 23.691 ± 0,051 10^-5 cm^2 V^-1 s^-1 | 9.299 ± 0.058 10^-5 cm^2 V^-1 s^-1 |  |  |  |  |  | 
11 | C1COC(NC(C2CC2)C2CC2)=N1 [Rilmenidine, rilmenidine hemifumarate] | 0.92 ± 0.03 | -2.88 ± 0.09 | 0.90 ± 0.03 | -2.35 ± 0.11 | 1.48 ± 0.02 | -2.96 ± 0.06 | 25.350 ± 0.121 10^-5 cm^2 V^-1 s^-1 | 22.551 ± 0.029 10^-5 cm^2 V^-1 s^-1 | 14.065 ± 0.214 10^-5 cm^2 V^-1 s^-1 |  |  |  |  |  | 
12 | CCOc1ccccc1OCCN[C@H](C)Cc1ccc(OC)c(S(N)(=O)=O)c1 [Tamsulosin, tamsulosin hydrochloride] | 2.22 ± 0.05 | -4.73 ± 0.13 | 2.75 ± 0.04 | -4.51 ± 0.10 | 3.06 ± 0.09 | -4.97 ± 0.20 | 17.310 ± 0.002 10^-5 cm^2 V^-1 s^-1 | 14.444 ± 0.058 10^-5 cm^2 V^-1 s^-1 | 2.472 ± 0.133 10^-5 cm^2 V^-1 s^-1 |  |  |  |  |  | 
13 | Clc1ccc2nsnc2c1NC1=NCCN1 [Tizanidine, tizanidine hydrochloride] | 0.74 ± 0.02 | -2.65 ± 0.06 | 1.12 ± 0.01 | -2.23 ± 0.03 | 1.34 ± 0.01 | -2.63 ± 0.04 | 24.770 ± 0.035 10^-5 cm^2 V^-1 s^-1 | 12.077 ± 0.042 10^-5 cm^2 V^-1 s^-1 | 0.000 ± 0.000 10^-5 cm^2 V^-1 s^-1 | zero |  |  |  |  | 
14 | Cc1cc(C(C)(C)C)cc(C)c1CC1=NCCN1 [Xylometazoline, xylometazoline hydrochloride] | 2.61 ± 0.00 | -4.22 ± 0.01 | 2.59 ± 0.02 | -4.14 ± 0.04 | 2.79 ± 0.08 | -4.17 ± 0.16 | 21.032 ± 0.019 10^-5 cm^2 V^-1 s^-1 | 19.943 ± 0.006 10^-5 cm^2 V^-1 s^-1 | 20.627 ± 0.015 10^-5 cm^2 V^-1 s^-1 |  |  |  |  |  | 
